Source: patent publication US20240254118A1, “PRMT5 INHIBITORS AND USES THEREOF” (Gilead Sciences, Inc., priority 2022, published 2024)

System: HCT116 MTAP-deleted cells
Test: Cell viability assay (CellTiter-Glo, 7 days), HCT116 MTAP-deleted
Conditions: Homo sapiens, HCT-116, 168 h

Row | Compound | CC50
1 | Nc1nc2ccc(C(=O)N(Cc3nc4ccc(Cl)cc4[nH]3)N3CCCC3=O)cc2c2ccccc12 [Example 124, 6-amino-N-((6-chloro-1H-benzo[d]imidazol-2-yl)methyl)-N-(2-oxopyrrolidin-1-yl)phenanthridine-2-carboxamide] | 100 to 1000 nM
2 | CC(=O)N(C)N(Cc1ccc(-c2cnc(C(F)(F)F)s2)cc1F)C(=O)c1ccc2nc(N)c3cnn(C)c3c2c1 [Example 217, N′-acetyl-4-amino-N-(2-fluoro-4-(2-(trifluoromethyl)thiazol-5-yl)benzyl)-N′,1-dimethyl-1H-pyrazolo[4,3-c]quinoline-8-carbohydrazide] | < 100 nM
3 | CC(=O)N(C)N(Cc1ccc(-c2ccc(C(F)(F)F)cn2)cc1F)C(=O)c1ccc2nc(N)c3cnn(C)c3c2c1 [Example 224, N′-acetyl-4-amino-N-(2-fluoro-4-(5-(trifluoromethyl)pyridin-2-yl)benzyl)-N′,1-dimethyl-1H-pyrazolo[4,3-c]quinoline-8-carbohydrazide] | < 100 nM
4 | CC(=O)N(C)N(Cc1ccc(-c2cc(C(F)(F)F)ccn2)cc1F)C(=O)c1ccc2nc(N)c3cnn(C)c3c2c1 [Example 225, N′-acetyl-4-amino-N-(2-fluoro-4-(4-(trifluoromethyl)pyridin-2-yl)benzyl)-N′,1-dimethyl-1H-pyrazolo[4,3-c]quinoline-8-carbohydrazide] | < 100 nM
5 | CC(=O)N(C)N(Cc1ccc(-c2cnoc2)cc1F)C(=O)c1ccc2nc(N)c3cnn(C)c3c2c1 [Example 227, N′-acetyl-4-amino-N-(2-fluoro-4-(isoxazol-4-yl)benzyl)-N′,1-dimethyl-1H-pyrazolo[4,3-c]quinoline-8-carbohydrazide] | < 100 nM
6 | CC(=O)N(C)N(Cc1ccc(-c2ccc(C(F)(F)F)s2)cc1F)C(=O)c1ccc2nc(N)c3cnn(C)c3c2c1 [Example 237, N′-acetyl-4-amino-N-(2-fluoro-4-(5-(trifluoromethyl)thiophen-2-yl)benzyl)-N′,1-dimethyl-1H-pyrazolo[4,3-c]quinoline-8-carbohydrazide] | < 100 nM
7 | CN(C(=O)C1CC1)N(Cc1ccc(-c2ccsn2)cc1F)C(=O)c1ccc2nc(N)c3cnn(C)c3c2c1 [Example 239, 4-amino-N′-(cyclopropanecarbonyl)-N-(2-fluoro-4-(isothiazol-3-yl)benzyl)-N′,1-dimethyl-1H-pyrazolo[4,3-c]quinoline-8-carbohydrazide] | < 100 nM
8 | CC(=O)N(C)N(Cc1ccc(-c2cccnc2)cc1F)C(=O)c1ccc2nc(N)c3cnn(C)c3c2c1 [Example 241, N′-acetyl-4-amino-N-(2-fluoro-4-(pyridin-3-yl)benzyl)-N′,1-dimethyl-1H-pyrazolo[4,3-c]quinoline-8-carbohydrazide] | < 100 nM
9 | CC(=O)N(C)N(Cc1ccc(-c2cncs2)cc1F)C(=O)c1ccc2nc(N)c3cnn(C)c3c2c1 [Example 245, N′-acetyl-4-amino-N-(2-fluoro-4-(thiazol-5-yl)benzyl)-N′,1-dimethyl-1H-pyrazolo[4,3-c]quinoline-8-carbohydrazide] | < 100 nM
10 | CC(=O)N(C)N(Cc1ccc(-c2cnn(C3(C)CC3)c2)cc1F)C(=O)c1ccc2nc(N)c3cnn(C)c3c2c1 [Example 247, N′-acetyl-4-amino-N-(2-fluoro-4-(1-(1-methylcyclopropyl)-1H-pyrazol-4-yl)benzyl)-N′,1-dimethyl-1H-pyrazolo[4,3-c]quinoline-8-carbohydrazide] | < 100 nM
11 | CC(=O)N(C)N(Cc1ccc(-c2cnn(C(F)(F)F)c2)cc1C#N)C(=O)c1ccc2nc(N)c3cnn(C)c3c2c1 [Example 251, N′-acetyl-4-amino-N-(2-cyano-4-(1-(trifluoromethyl)-1H-pyrazol-4-yl)benzyl)-N′,1-dimethyl-1H-pyrazolo[4,3-c]quinoline-8-carbohydrazide] | < 100 nM
12 | CC(=O)N(C)N(Cc1ccc(-c2cnn(C(F)F)c2)cc1C#N)C(=O)c1ccc2nc(N)c3cnn(C)c3c2c1 [Example 252, N′-acetyl-4-amino-N-(2-cyano-4-(1-(difluoromethyl)-1H-pyrazol-4-yl)benzyl)-N′,1-dimethyl-1H-pyrazolo[4,3-c]quinoline-8-carbohydrazide] | < 100 nM
13 | [2H]C([2H])([2H])N(C(=O)C1CC1)N(Cc1ncc(C(F)(F)F)cc1F)C(=O)c1ccc2nc(N)c3cnn(C)c3c2c1 [Example 268, 4-amino-N′-(cyclopropanecarbonyl)-N-((3-fluoro-5-(trifluoromethyl)pyridin-2-yl)methyl)-1-methyl-N′-(methyl-d3)-1H-pyrazolo[4,3-c]quinoline-8-carbohydrazide] | < 100 nM
14 | [2H]C([2H])([2H])N(C(C)=O)N(Cc1ccc(C(F)(F)F)cc1F)C(=O)c1ccc2nc(N)c3cnn(C)c3c2c1 [Example 269, N′-acetyl-4-amino-N-(2-fluoro-4-(trifluoromethyl)benzyl)-1-methyl-N′-(methyl-d3)-1H-pyrazolo[4,3-c]quinoline-8-carbohydrazide] | < 100 nM
15 | CC(=O)N(C)N(Cc1cccc2ccoc12)C(=O)c1ccc2nc(N)c3cnn(C)c3c2c1 [Example 273, N′-acetyl-4-amino-N-(benzofuran-7-ylmethyl)-N′,1-dimethyl-1H-pyrazolo[4,3-c]quinoline-8-carbohydrazide] | < 100 nM
16 | CN(C(=O)C1CC1)N(Cc1ccc2c(c1)OC(F)(F)O2)C(=O)c1cc2c(cc1F)nc(N)c1cnn(C)c12 [Example 282, 4-amino-N′-(cyclopropanecarbonyl)-N-((2,2-difluorobenzo[d][1,3]dioxol-5-yl)methyl)-7-fluoro-N′,1-dimethyl-1H-pyrazolo[4,3-c]quinoline-8-carbohydrazide] | < 100 nM
17 | Cn1ncc2c(N)nc3cc(F)c(C(=O)N(Cc4ccc(C(F)(F)F)cn4)N4CCOC5(CC5)C4)cc3c21 [Example 284, 4-amino-7-fluoro-1-methyl-N-(4-oxa-7-azaspiro[2.5]octan-7-yl)-N-((5-(trifluoromethyl)pyridin-2-yl)methyl)-1H-pyrazolo[4,3-c]quinoline-8-carboxamide] | < 100 nM
18 | Cn1ncc2c(N)nc3ccc(C(=O)N(Cc4ccc(C(F)(F)F)cn4)N4CCOC5(CC5)C4)cc3c21 [Example 285, 4-amino-1-methyl-N-(4-oxa-7-azaspiro[2.5]octan-7-yl)-N-((5-(trifluoromethyl)pyridin-2-yl)methyl)-1H-pyrazolo[4,3-c]quinoline-8-carboxamide] | 100 to 1000 nM
19 | CN(C(=O)C1CC1)N(Cc1ccc(OC(F)F)cn1)C(=O)c1cc2c(cc1F)nc(N)c1cnn(C)c12 [Example 290, 4-amino-N′-(cyclopropanecarbonyl)-N-((5-(difluoromethoxy)pyridin-2-yl)methyl)-7-fluoro-N′,1-dimethyl-1H-pyrazolo[4,3-c]quinoline-8-carbohydrazide] | < 100 nM
20 | CN(C(=O)C1CC1)N(Cc1ccc(OC(F)F)cn1)C(=O)c1ccc2nc(N)c3cnn(C)c3c2c1 [Example 291, 4-amino-N′-(cyclopropanecarbonyl)-N-((5-(difluoromethoxy)pyridin-2-yl)methyl)-N′,1-dimethyl-1H-pyrazolo[4,3-c]quinoline-8-carbohydrazide] | < 100 nM
21 | CN(C(=O)C1CC1)N(Cc1ccc(-c2ccn(C(F)F)n2)cc1F)C(=O)c1ccc2nc(N)c3cnn(C)c3c2c1 [Example 312, 4-amino-N′-(cyclopropanecarbonyl)-N-(4-(1-(difluoromethyl)-1H-pyrazol-3-yl)-2-fluorobenzyl)-N′,1-dimethyl-1H-pyrazolo[4,3-c]quinoline-8-carbohydrazide] | < 100 nM
22 | COc1c(CN(C(=O)c2ccc3nc(N)c4cnn(C)c4c3c2)N(C)C(=O)C2CC2)ccc(Cl)c1F [Example 313, 4-amino-N-(4-chloro-3-fluoro-2-methoxybenzyl)-N′-(cyclopropanecarbonyl)-N′,1-dimethyl-1H-pyrazolo[4,3-c]quinoline-8-carbohydrazide] | < 100 nM
23 | CN(C(=O)C1CC1)N(Cc1cc(F)c(-c2cnn(C(F)F)c2)cc1F)C(=O)c1ccc2nc(N)c3cnn(C)c3c2c1 [Example 314, 4-amino-N′-(cyclopropanecarbonyl)-N-(4-(1-(difluoromethyl)-1H-pyrazol-4-yl)-2,5-difluorobenzyl)-N′,1-dimethyl-1H-pyrazolo[4,3-c]quinoline-8-carbohydrazide] | < 100 nM
24 | COCc1cc(C(F)(F)F)ccc1CN(C(=O)c1ccc2nc(N)c3cnn(C)c3c2c1)N(C)C(=O)C1CC1 [Example 316, 4-amino-N′-(cyclopropanecarbonyl)-N-(2-(methoxymethyl)-4-(trifluoromethyl)benzyl)-N′,1-dimethyl-1H-pyrazolo[4,3-c]quinoline-8-carbohydrazide] | < 100 nM
25 | CN(C(=O)C1CC1)N(Cc1ccc(OC(F)F)cc1F)C(=O)c1ccc2nc(N)c3cnn(C)c3c2c1 [Example 317, 4-amino-N′-(cyclopropanecarbonyl)-N-(4-(difluoromethoxy)-2-fluorobenzyl)-N′,1-dimethyl-1H-pyrazolo[4,3-c]quinoline-8-carbohydrazide] | < 100 nM
26 | Cn1ncc2c(N)nc3ccc(C(=O)N(Cc4ccc(C(F)(F)F)cn4)N4CC5(CC5)COC4=O)cc3c21 [Example 319, 4-amino-1-methyl-N-(6-oxo-5-oxa-7-azaspiro[2.5]octan-7-yl)-N-((5-(trifluoromethyl)pyridin-2-yl)methyl)-1H-pyrazolo[4,3-c]quinoline-8-carboxamide] | < 100 nM
27 | Cn1ncc2c(N)nc3cc(F)c(C(=O)N(Cc4ccc(C(F)(F)F)cn4)N4CC5(CC5)COC4=O)cc3c21 [Example 320, 4-amino-7-fluoro-1-methyl-N-(6-oxo-5-oxa-7-azaspiro[2.5]octan-7-yl)-N-((5-(trifluoromethyl)pyridin-2-yl)methyl)-1H-pyrazolo[4,3-c]quinoline-8-carboxamide] | < 100 nM
28 | CC(=O)N(C)N(Cc1ccc(-c2ccn(C(F)(F)F)n2)nc1F)C(=O)c1ccc2nc(N)c3cnn(C)c3c2c1 [Example 346, N′-acetyl-4-amino-N-((2-fluoro-6-(1-(trifluoromethyl)-1H-pyrazol-3-yl)pyridin-3-yl)methyl)-N′,1-dimethyl-1H-pyrazolo[4,3-c]quinoline-8-carbohydrazide] | < 100 nM
